Assay results published in patent US7998958B2, “Substituted N-arylsulfonylheterocyclic amines as gamma-secretase inhibitors” (Schering Corporation, priority 2004, dated 2011).

System: gamma-secretase
Test: Gamma-secretase activity in membranes of 293 cells expressing C99 (SPC99-Ion), Aβ 40 / Aβ 42 by ECL immunoassay
Format: biochemical
Conditions: gamma-secretase membrane assay; single values listed after 'within the range of about 1 nM to about 25 nM, i.e.'
Procedure: Gamma-secretase activity was determined as described by Zhang et al. (Biochemistry, 40 (16), 5049-5055, 2001), which is herein incorporated by reference. Activity is expressed either as a percent inhibition or as the concentration of compound producing 50% inhibition of enzyme activity.
Reagents. Antibodies W02, G2-10, and G2-11 were obtained from Dr. Konrad Beyreuther (University of Heidelberg, Heidelberg, Germany). W02 recognizes residues 5-8 of Aβ peptide, while G2-10 and G2-11 recognize the specific C-terminal structure of Aβ 40 and Aβ42, respectively. Biotin-4G8 was purchased from Senetec (St. Louis, Mo.). All tissue culture reagents used in this work were from Life Technologies, Inc., unless otherwise specified. Pepstatin A was purchased from Roche Molecular Biochemicals; DFK167 was from Enzyme Systems Products (Livermore, Calif.).
cDNA Constructs, Tissue Culture, and Cell Line Construction. The construct SPC99-Ion, which contains the first 18 residues and the C-terminal 99 amino acids of APP carrying the London mutation, has been described (Zhang, L., Song, L., and Parker, E. (1999) J. Biol. Chem. 274, 8966-8972). Upon insertion into the membrane, the 17 amino acid signal peptide is processed, leaving an additional leucine at the N-terminus of Aβ. SPC99-Ion was cloned into the pcDNA4/TO vector (Invitrogen) and transfected into 293 cells stably transfected with pcDNA6/TR, which is provided in the T-REx system (Invitrogen). The transfected cells were selected in Dulbecco's modified Eagle's media (DMEM) supplemented with 10% fetal bovine serum, 100 units/mL penicillin, 100 µg/mL streptomycin, 250 µg/mL zeocin, and 5 µg/mL blasticidin (Invitrogen). Colonies were screened for Aβ production by inducing C99 expression with […] tetracycline for 16-20 h and analyzing conditioned media with a sandwich immunoassay (see below). One of the clones, designated as pTRE.15, was used in these studies.
Membrane Preparation. C99 expression in cells was induced with […] tetracycline for 20 h. The cells were pretreated with […] 12-myristate 13-acetate (PMA) and […] brefeldin A (BFA) for 5-6 h at 37° C. before harvesting. The cells were washed 3 times with cold phosphate-buffered saline (PBS) and harvested in buffer A containing 20 mM Hepes (pH 7.5), 250 mM sucrose, 50 mM KCl, 2 mM EDTA, 2 mM EGTA, and Complete protease inhibitor tablets (Roche Molecular Biochemicals). The cell pellets were flash-frozen in liquid nitrogen and stored at −70 C before use.
To make membranes, the cells were resuspended in buffer A and lysed in a nitrogen bomb at 600 psi. The cell lysate was centrifuged at 1500 g for 10 min to remove nuclei and large cell debris. The supernatant was centrifuged at 100000 g for 1 h. The membrane pellet was resuspended in buffer A plus 0.5 M NaCl, and the membranes were collected by centrifugation at 200000 g for 1 h. The salt-washed membrane pellet was washed again in buffer A and centrifuged at 100000 g for 1 h. The final membrane pellet was resuspended in a small volume of buffer A using a Teflon-glass homogenizer. The protein concentration was determined, and membrane aliquots were flash-frozen in liquid nitrogen and stored at −70° C.
γ-Secretase Reaction and AβAnalysis. To measure γ-secretase activity, membranes were incubated at 37° C. for 1 h in 50 μL of buffer containing 20 mM Hepes (pH 7.0) and 2 mM EDTA. At the end of the incubation, Aβ 40 and Aβ 42 were measured using an electrochemiluminescence (ECL)-based immunoassay. Aβ 40 was identified with antibody pairs TAG-G2-10 and biotin-W02, while Aβ 42 was identified with TAG-G2-11 and biotin-4G8. The ECL signal was measured using an ECL-M8 instrument (IGEN International, Inc.) according to the manufacturer's instructions. The data presented were the means of the duplicate or triplicate measurements in each experiment. The characteristics of γ-secretase activity described were confirmed using more than five independent membrane preparations.

| Structure (SMILES) | IC50 |
| --- | --- |
| O=C(CC1([C@H]2COC[C@@H](C3CC3)N2S(=O)(=O)c2ccc(Cl)cc2)CC1)N1C2CCC1CC(N1CCCCC1)C2 (single isomer, unassigned) [Example 142] | 12.4 nM |
| O=C(OC[C@H]1COC[C@@H](c2cc(F)cc(F)c2)N1S(=O)(=O)c1ccc(Cl)cc1)N1CCC(N2CCCCC2)CC1 [Example 2] | 6.8 nM |
| CCC[C@@H]1COC[C@H](C2(OC(=O)N3CC4CCC(C3)N4CCO)CC2)N1S(=O)(=O)c1ccc(Cl)cc1 [Example 15] | 3.6 nM |
| CC(C)(CO)N1CCN(C(=O)OC2(C3COCC(c4cc(F)cc(F)c4)N3S(=O)(=O)c3ccc(Cl)cc3)CC2)CC1 (stereo not shown) [Example 16, 4-(2-Hydroxy-1,1-dimethyl-ethyl)-piperazine-1-carboxylic acid 1-[4-(4-chloro-benzenesulfonyl)-5-(3,5-difluoro-phenyl)-morpholin-3-yl]-cyclopropyl ester] | 1.4 nM |
| O=C(OC[C@H]1COC[C@@H](C2CC2)N1S(=O)(=O)c1ccc(Cl)cc1)N1CCC(N2CCCCC2)CC1 [Example 30] | 11.1 nM |
| CC(C)(CO)N1CCN(C(=O)OC2(C3COCC(C4CC4)N3S(=O)(=O)c3ccc(Cl)cc3)CC2)CC1 (stereo not shown) [Example 35, 4-(2-Hydroxy-1,1-dimethyl-ethyl)-piperazine-1-carboxylic acid 1-[4-(4-chloro-benzenesulfonyl)-5-cyclopropyl-morpholin-3-yl]-cyclopropyl ester] | 9.5 nM |
| CCCC1(O)CCN(C(=O)OC2([C@H]3COC[C@@H](C4CC4)N3S(=O)(=O)c3ccc(Cl)cc3)CC2)C1 (stereo partly shown) [Example 36] | 13.3 nM |
| O=C(OC1([C@H]2COC[C@@H](C3CC3)N2S(=O)(=O)c2ccc(Cl)cc2)CC1)N1CC2CCC(C1)N2CCO [Example 43] | 7.9 nM |
| CN1CC2CCC(C1)N2C(=O)OC1([C@H]2COC[C@@H](C3CC3)N2S(=O)(=O)c2ccc(Cl)cc2)CC1 [Example 51] | 6.2 nM |
| CN(C)CC(=O)N1C2CCC1CN(C(=O)OC1([C@H]3COC[C@@H](C4CC4)N3S(=O)(=O)c3ccc(Cl)cc3)CC1)C2 [Example 59] | 8.9 nM |
| C[C@H]1OC[C@H](C2(OC(=O)N3CC4CCC(C3)N4CCO)CC2)N(S(=O)(=O)c2ccc(Cl)cc2)[C@@H]1C1CC1 [Example 75] | 0.9 nM |
| O=C(OC1([C@H]2COC[C@@H](CC3CC3)N2S(=O)(=O)c2ccc(Cl)cc2)CC1)N1CC2CCC(C1)N2CCO [Example 99] | 0.9 nM |
| O=C(OC1([C@H]2COC[C@@H](CC3CC3)N2S(=O)(=O)c2cc(F)cc(F)c2)CC1)N1CC2CCC(C1)N2 [Example 135] | 4.2 nM |
| O=C(C(O)C1([C@H]2COC[C@@H](C3CC3)N2S(=O)(=O)c2ccc(Cl)cc2)CC1)N1CC2CCC(C1)N2 (stereo partly drawn) [Example 146, alpha-[1-[4-[(4-chlorophenyl)sulfonyl]-5(r)-cyclopropyl-3(s)-morpholinyl]cyclopropyl]-beta-oxo-3,8-diazabicyclo[3.2.1]octane-3-ethanol] | 10.1 nM |

More lines, now with the values ahead:

| IC50 | Structure (SMILES) |
| --- | --- |
| 24.5 nM | O=C(O)CC1CCN(C(=O)OC2([C@H]3COC[C@@H](C4CC4)N3S(=O)(=O)c3ccc(Cl)cc3)CC2)CC1 [Example 47] |
| 5.2 nM | C[C@@H]1OC[C@H](C2(OC(=O)N3CC[C@@H](O)C3)CC2)N(S(=O)(=O)c2ccc(Cl)cc2)[C@@H]1C1CC1 [Example 69] |
| 3.9 nM | CC(C)[C@@H]1COC[C@H](C2(OC(=O)N3CCN(C(C)(C)CO)CC3)CC2)N1S(=O)(=O)c1ccc(Cl)cc1 [Example 78] |
| 6.7 nM | C[C@H]1N(S(=O)(=O)c2ccc(Cl)cc2)[C@@H](C2(OC(=O)N3CCC(C(N)=O)CC3)CC2)COC1(C)C [Example 88] |
| 2.1 nM | CC(C)(CO)N1CCN(C(=O)OC2(C3COCC(CC4CC4)N3S(=O)(=O)c3ccc(Cl)cc3)CC2)CC1 (stereo not shown) [Example 94, 4-(2-Hydroxy-1,1-dimethyl-ethyl)-piperazine-1-carboxylic acid 1-[4-(4-chloro-benzenesulfonyl)-5-cyclopropylmethyl-morpholin-3-yl]-cyclopropyl ester] |
| 3.6 nM | O=C(OC1([C@H]2COC[C@@H](CC3CC3)N2S(=O)(=O)c2ccc(Cl)cc2)CC1)N1CC2CC1CN2CCO (stereo partly shown) [Example 98] |
| 5.7 nM | CN1CCN(C(=O)OC2([C@H]3COC[C@@H](CC4CC4)N3S(=O)(=O)c3ccc(Cl)cc3)CC2)CC1=O [Example 110] |
| 4.2 nM | CN1CCCN(C(=O)OC2([C@H]3COC[C@@H](CC4CC4)N3S(=O)(=O)c3ccc(Cl)cc3)CC2)CC1 [Example 122] |
